Biological target: EGFR Kinase (Homo sapiens, UniProt P00533)
Assay: EGFR inhibitory activity test (HTRF kinEASE STK S1 kinase assay)
Assay type: biochemical
Details: replicate wells, read-out: IC50(nM), Inhibitory Activity of Compounds on EGFR Kinase
Experimental: In a pilot study, the compounds disclosed herein were screened for their EGFR inhibitory activity. The Cisbio Research Product HTRF kinEASE STK S1 kinase assay/inhibitor screening Kit, can detect the generation of the phosphorylated substrate. Kinase, biotinylated substrate and ATP were first added into buffer solution, and the phosphorylated biotinylated substrates were formed by enzyme reaction. Then, to the above solution was added europium-labeled anti-phospho-site specific antibodies and XL665-labeled avidin. The Specific combinations of antibody with antigen, and biotin with avidin, bring the europium and XL665 closer together and resonance energy transferred. The signals at 620 nm and 665 nm were detected, and the activity of the kinase was evaluated by the ratio of the two signals value.

Sequence of EGFR Kinase (P00533 25-1210): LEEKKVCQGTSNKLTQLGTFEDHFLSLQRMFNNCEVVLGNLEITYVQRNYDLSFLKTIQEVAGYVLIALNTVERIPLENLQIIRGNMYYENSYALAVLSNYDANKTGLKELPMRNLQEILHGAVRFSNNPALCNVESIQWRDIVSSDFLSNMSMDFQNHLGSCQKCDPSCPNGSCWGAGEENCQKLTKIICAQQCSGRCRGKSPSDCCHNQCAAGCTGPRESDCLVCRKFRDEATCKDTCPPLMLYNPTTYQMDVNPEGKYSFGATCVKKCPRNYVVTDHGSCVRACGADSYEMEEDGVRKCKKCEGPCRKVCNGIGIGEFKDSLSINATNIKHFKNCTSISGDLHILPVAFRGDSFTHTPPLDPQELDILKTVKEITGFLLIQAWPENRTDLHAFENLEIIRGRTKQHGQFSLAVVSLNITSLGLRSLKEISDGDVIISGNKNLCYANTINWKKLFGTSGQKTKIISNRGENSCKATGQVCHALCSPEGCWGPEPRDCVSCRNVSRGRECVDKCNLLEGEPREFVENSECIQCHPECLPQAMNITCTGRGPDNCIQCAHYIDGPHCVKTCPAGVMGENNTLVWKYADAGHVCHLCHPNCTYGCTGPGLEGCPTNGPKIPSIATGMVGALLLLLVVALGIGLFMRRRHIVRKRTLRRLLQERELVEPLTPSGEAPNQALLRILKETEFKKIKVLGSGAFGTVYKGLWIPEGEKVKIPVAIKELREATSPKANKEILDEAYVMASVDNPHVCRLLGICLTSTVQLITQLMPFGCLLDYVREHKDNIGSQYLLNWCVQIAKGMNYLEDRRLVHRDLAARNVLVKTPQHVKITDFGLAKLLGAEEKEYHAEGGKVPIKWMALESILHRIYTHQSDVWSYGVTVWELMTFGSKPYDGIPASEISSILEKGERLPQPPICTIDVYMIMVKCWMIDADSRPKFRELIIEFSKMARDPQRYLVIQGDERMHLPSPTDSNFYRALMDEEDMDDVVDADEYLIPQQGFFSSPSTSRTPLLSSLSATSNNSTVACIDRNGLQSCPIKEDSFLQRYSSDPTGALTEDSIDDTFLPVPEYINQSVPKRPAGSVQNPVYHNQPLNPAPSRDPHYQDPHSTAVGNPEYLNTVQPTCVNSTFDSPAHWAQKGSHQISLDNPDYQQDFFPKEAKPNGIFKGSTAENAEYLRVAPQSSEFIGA

Compound	IC50
COc1cc2ncnc(Nc3ccc(F)c(Cl)c3)c2cc1OCCCN1CCC2CN(C(C)=O)CC21 (centres unmarked) [Example 14, 1-(1-(3-((4-((3-chloro-4-fluorophenyl)amino)-7-methoxyquinazolin-6-yl)oxy)propyl)hexahydropyrrolo[3,4-b]pyrrol-5(1H)-yl)ethanone]	1 to 10 nM
COc1cc2ncnc(Nc3ccc(F)c(Cl)c3)c2cc1OCCCN1CC2OCCOC2C1 (centres unmarked) [Example 6, N-(3-chloro-4-fluorophenyl)-7-methoxy-6-(3-(tetrahydro-2H-[1,4]dioxino[2,3-c]pyrrol-6(3H)-yl)propoxy)quinazolin-4-amine]	0.001 to 0.1 nM
COc1cc2ncnc(Nc3ccc(F)c(Cl)c3)c2cc1OCCCN1CC2C(C1)C2N(C)C (centres unmarked) [Example 32, N-(3-chloro-4-fluorophenyl)-6-(3-(6-(dimethylamino)-3-azabicyclo[3.1.0]hexan-3-yl)propoxy)-7-methoxyquinazolin-4-amine]	1 to 10 nM
COc1cc2ncnc(Nc3ccc(F)c(Cl)c3)c2cc1OCCCN1CCC2CCCCC2C1 (centres unmarked) [Example 35, N-(3-chloro-4-fluorophenyl)-7-methoxy-6-(3-(octahydroisoquinolin-2(1H)-yl)propoxy)quinazolin-4-amine]	0.001 to 0.1 nM
COc1cc2ncnc(Nc3ccc(F)c(Cl)c3)c2cc1OCCCN1CC2OCCN(C)C2C1 (centres unmarked) [Example 15, N-(3-chloro-4-fluorophenyl)-7-methoxy-6-(3-(4-methylhexahydropyrrolo[3,4-b][1,4]oxazin-6(2H)-yl)propoxy)quinazolin-4-amine]	0.101 to 1 nM
COc1cc2ncnc(Nc3ccc(F)cc3)c2cc1OCCCN1CC2CNCC2C1 (centres unmarked) [Example 41, N-(4-fluorophenyl)-6-(3-(hexahydropyrrolo[3,4-c]pyrrol-2(1H)-yl)propoxy)-7-methoxyquinazolin-4-amine]	0.001 to 0.1 nM
CCN1CC2CCCN(CCCOc3cc4c(Nc5ccc(F)c(Cl)c5)ncnc4cc3OC)C2C1 (centres unmarked) [Example 29, N-(3-chloro-4-fluorophenyl)-6-(3-(6-ethyloctahydro-1H-pyrrolo[3,4-b]pyridin-1-yl)propoxy)-7-methoxyquinazolin-4-amine]	0.001 to 0.1 nM
COc1cc2ncnc(Nc3ccc(F)c(Cl)c3)c2cc1OCCCN1CCc2nn(C)c(C)c2C1 [Example 39, N-(3-chloro-4-fluorophenyl)-6-(3-(2,3-dimethyl-6,7-dihydro-2H-pyrazolo[4,3-c]pyridine-5(4H)-yl)propoxy)-7-methoxyquinazolin-4-amine]	1 to 10 nM
COc1cc2ncnc(Nc3ccc(F)c(Cl)c3)c2cc1OCCCN1CC2CCOC(=O)C2C1 (centres unmarked) [Example 20, 2-(3-((4-((3-chloro-4-fluorophenyl)amino)-7-methoxyquinazolin-6-yl)oxy)propyl)hexahydropyrano[3,4-c]pyrrol-4(2H)-one]	0.001 to 0.1 nM
COc1cc2ncnc(Nc3ccc(F)c(Cl)c3)c2cc1OCCCN1CC2CCCN(C)C2C1 (centres unmarked) [Example 28, N-(3-chloro-4-fluorophenyl)-7-methoxy-6-(3-(1-methylhexahydro-1H-pyrrolo[3,4-b]pyridin-6(2H)-yl)propoxy)quinazolin-4-amine]	0.001 to 0.1 nM
CCc1nnc2n1CCN(CCCOc1cc3c(Nc4ccc(F)c(Cl)c4)ncnc3cc1OC)C2 [Example 2, N-(3-chloro-4-fluorophenyl)-6-(3-(3-ethyl-5,6-dihydro-[1,2,4]triazolo[4,3-a]pyrazin-7(8H)-yl)propoxy)-7-methoxyquinazolin-4-amine]	> 10 nM
COc1cc2ncnc(Nc3ccc(F)c(Cl)c3)c2cc1OCCCN1CC2COCC2C1 (centres unmarked) [Example 22, N-(3-chloro-4-fluorophenyl)-7-methoxy-6-(3-(tetrahydro-1H-furo[3,4-c]pyrrol-5(3H)-yl)propoxy) quinazolin-4-amine]	0.001 to 0.1 nM
COc1cc2ncnc(Nc3ccc(F)cc3)c2cc1OCCCN1CC2OCCOC2C1 (centres unmarked) [Example 7, N-(4-fluorophenyl)-7-methoxy-6-(3-(tetrahydro-2H-[1,4]dioxino[2,3-c]pyrrol-6(3H)-yl)propoxy) quinazolin-4-amine]	1 to 10 nM
C#Cc1cc(Nc2ncnc3cc(OC)c(OCCCN4CC5CNCC5C4)cc23)ccc1F (centres unmarked) [Example 44, N-(3-ethynyl-4-fluorophenyl)-6-(3-(hexahydropyrrolo[3,4-c]pyrrol-2(1H)-yl)propoxy)-7-methoxyquinazolin-4-amine]	0.101 to 1 nM
C#Cc1cc(Nc2ncnc3cc(OC)c(OCCCN4CCn5cnnc5C4)cc23)ccc1F [Example 45, 6-(3-(5,6-dihydro-[1,2,4]triazolo[4,3-a]pyrazin-7(8H)-yl)propoxy)-N-(3-ethynyl-4-fluorophenyl)-7-m ethoxyquinazolin-4-amine]	0.101 to 1 nM
COc1cc2ncnc(Nc3ccc(F)c(Cl)c3)c2cc1OCCCN1C[C@@H]2OCCO[C@H]2C1 [Example 40, N-(3-chloro-4-fluorophenyl)-7-methoxy-6-(3-((4aS,7aS)-tetrahydro-2H-[1,4]dioxino[2,3-c]pyrrol-6(3H)-yl)propoxy)quinazolin-4-amine]	0.001 to 0.1 nM

Compound	IC50
COc1cc2ncnc(Nc3ccc(F)c(Cl)c3)c2cc1OCCCN1CC2CCOCC2C1 (centres unmarked) [Example 23, N-(3-chloro-4-fluorophenyl)-6-(3-(hexahydropyrano[3,4-c]pyrrol-2(3H)-yl)propoxy)-7-methoxyquinazolin-4-amine]	1 to 10 nM
COc1cc2ncnc(Nc3ccc(F)c(Cl)c3)c2cc1OCCCN1CC2CCCNC2C1 (centres unmarked) [Example 25, N-(3-chloro-4-fluorophenyl)-6-(3-(hexahydro-1H-pyrrolo[3,4-b]pyridin-6(2H)-yl)propoxy)-7-methoxyquinazolin-4-amine]	0.001 to 0.1 nM
COc1cc2ncnc(Nc3ccc(F)c(Cl)c3)c2cc1OCCCN1CCC2CCNC2C1 (centres unmarked) [Example 17, N-(3-chloro-4-fluorophenyl)-6-(3-(hexahydro-1H-pyrrolo[2,3-c]pyridin-6(2H)-yl)propoxy)-7-methoxyquinazolin-4-amine]	0.001 to 0.1 nM
COc1cc2ncnc(Nc3ccc(F)c(Cl)c3)c2cc1OCCCN1CC2CCCC2C1 (centres unmarked) [Example 21, N-(3-chloro-4-fluorophenyl)-6-(3-(hexahydrocyclopenta[c]pyrrol-2(1H)-yl)propoxy)-7-methoxyquinazolin-4-amine]	0.001 to 0.1 nM
COc1cc2ncnc(Nc3ccc(F)c(Cl)c3)c2cc1OCCCN1C[C@@H]2C[C@]2(O)C1 [Example 4, (1R,5S)-3-(3-((4-((3-chloro-4-fluorophenyl)amino)-7-methoxyquinazolin-6-yl)oxy)propyl)-3-azabicyclo[3.1.0]hexan-1-ol]	0.001 to 0.1 nM
COc1cc2ncnc(Nc3ccc(F)c(Cl)c3)c2cc1OCCCN1CCCC2CNCC21 (centres unmarked) [Example 26, N-(3-chloro-4-fluorophenyl)-7-methoxy-6-(3-(octahydro-1H-pyrrolo[3,4-b]pyridin-1-yl)propoxy) quinazolin-4-amine]	0.001 to 0.1 nM
COc1cc2ncnc(Nc3ccc(F)c(Cl)c3)c2cc1OCCCN1CCCC2OCCCC21 (centres unmarked) [Example 31, N-(3-chloro-4-fluorophenyl)-6-(3-(hexahydro-2H-pyrano[3,2-b]pyridin-5(3H)-yl)propoxy)-7-methoxyquinazolin-4-amine]	0.001 to 0.1 nM
COc1cc2ncnc(Nc3ccc(F)c(Cl)c3)c2cc1OCCCN1CCC2OCCOC2C1 (centres unmarked) [Example 36, N-(3-chloro-4-fluorophenyl)-6-(3-(hexahydro-[1,4]dioxino[2,3-c]pyridin-6(7H)-yl)propoxy)-7-methoxyquinazolin-4-amine]	1 to 10 nM
C#Cc1cc(Nc2ncnc3cc(OC)c(OCCCN4CC5OCCOC5C4)cc23)ccc1F (centres unmarked) [Example 9, N-(3-ethynyl-4-fluorophenyl)-7-methoxy-6-(3-(tetrahydro-2H-[1,4]dioxino[2,3-c]pyrrol-6(3H)-yl)propoxy)quinazolin-4-amine]	1 to 10 nM
COc1cc2ncnc(Nc3ccc(F)c(Cl)c3)c2cc1OCCCN1CCn2cnnc2C1 [Example 3, N-(3-chloro-4-fluorophenyl)-6-(3-(5,6-dihydro-[1,2,4]triazolo[4,3-a]pyrazin-7(8H)-yl)propoxy)-7-methoxyquinazolin-4-amine]	0.101 to 1 nM
COc1cc2ncnc(Nc3ccc(F)c(Cl)c3)c2cc1OCCCN1CC2CN(C)CC2C1 (centres unmarked) [Example 12, N-(3-chloro-4-fluorophenyl)-7-methoxy-6-(3-(5-methylhexahydropyrrolo[3,4-c]pyrrol-2(1H)-yl)propoxy)quinazolin-4-amine]	0.101 to 1 nM
COc1cc2ncnc(Nc3ccc(F)cc3)c2cc1OCCCN1CCC2COCC2C1 (centres unmarked) [Example 43, N-(4-fluorophenyl)-6-(3-(hexahydrofuro[3,4-c]pyridin-5(3H)-yl)propoxy)-7-methoxyquinazolin-4-amine]	0.101 to 1 nM
COc1cc2ncnc(Nc3ccc(F)c(Cl)c3)c2cc1OCCCN1C[C@@H]2C[C@]2(N(C)C)C1 [Example 5]	0.101 to 1 nM
COc1cc2ncnc(Nc3ccc(F)c(Cl)c3)c2cc1OCCCN1CCn2c(nnc2C(F)(F)F)C1 [Example 1, N-(3-chloro-4-fluorophenyl)-7-methoxy-6-(3-(3-(trifluoromethyl)-5,6-dihydro-[1,2,4]triazolo[4,3-a]pyrazin-7(8H)-yl)propoxy)quinazolin-4-amine]	1 to 10 nM
COc1cc2ncnc(Nc3ccc(F)c(Cl)c3)c2cc1OCCCN1CCc2c(c(C)nn2C)C1 [Example 38, N-(3-chloro-4-fluorophenyl)-6-(3-(1,3-dimethyl-6,7-dihydro-1H-pyrazolo[4,3-c]pyridin-5(4H)-yl)propoxy)-7-methoxyquinazolin-4-amine]	0.101 to 1 nM
COc1cc2ncnc(Nc3ccc(F)c(Cl)c3)c2cc1OCCCN1CCCC2CN(C)CC21 (centres unmarked) [Example 27, N-(3-chloro-4-fluorophenyl)-7-methoxy-6-(3-(6-methyloctahydro-1H-pyrrolo[3,4-b]pyridin-1-yl)propoxy)quinazolin-4-amine]	0.001 to 0.1 nM
